Results taken from article PMC3759246 (Bioorganic & medicinal chemistry letters, 2013).
pEC50: −log10 of the molar value. Marks after values point to notes of the source that are not given here.

What was measured:
[1] = cited from earlier work
WT HIV-1 (IIIB) = assay: microbe, parasite or virus in culture; conditions: Human immunodeficiency virus 1, IIIB, MT2, read-out: EC50 in cell assays

In the case of Cc1cc(C#N)cc(C)c1Oc1nc(Nc2ccc(C#N)cc2)nc(N)c1Br [etravirine], the “Aqueous solubility S” value [1] is listed as “≪ 1 ^b μg/mL”.
Work on Cc1ccnc2c1NC(=O)c1cccnc1N2C1CC1 [nevirapine] yielded a pEC50 (WT HIV-1 (IIIB)) of roughly 7.00.
